The source of these data is patent US20170129916A1, “NOVEL BETULINIC PROLINE IMIDAZOLE DERIVATIVES AS HIV INHIBITORS” (HETERO RESEARCH FOUNDATION, priority 2014, published 2017).

The structures appear in SMILES notation.

Data set [1] in a line: Single dose oral pharmacokinetic study. Format: in vivo. As to conditions: mouse, mice, 30 mg/kg, plasma; for AUC(0-t): read-out: Mice oral PK @30 mg/kg AUC 0-t; for Cmax: read-out: Mice oral PK @30 mg/kg Cmax. In short, it runs like this: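 Rats or mice received 30 mg/kg orally at 10 ml/kg dose volume. Retro-orbital blood was taken into K3 EDTA at defined intervals under light ether anesthesia and centrifuged to plasma. Plasma levels were measured by LC-MS-MS.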

The subject of data set [2] is HIV-1 strains, for e.g., 92HT599. Nature of the data set: Antiviral activity: p24 estimation in MT-2 cells infected with HIV-1. Format: cell-based. As to conditions: Human immunodeficiency virus 1, MT2, MT-2 cells infected with HIV-1, p24, ~96 hours; for IC50: read-out: Antiviral activity IC50 (nM) Efficacy IC50. An outline of the steps: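 MT-2 cells infected with HIV-1 (e.g. 92HT599), plated at 30,000 cells/well with compound (DMSO ≤1%) and incubated ~96 h. Supernatant p24 quantified by kit; percent inhibition relative to vehicle controls.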

Turning to `C=C(C)[C@@H]1CC[C@]2(C(=O)N3CCC[C@H]3c3ncc(C(F)(F)F)[nH]3)CC[C@]3(C)[C@H](CC[C@@H]4[C@@]5(C)CC[C@H](OC(=O)[C@H]6C[C@@H](C(=O)O)C6(C)C)C(C)(C)[C@@H]5CC[C@]43C)[C@@H]12` [Compound 34, (1R,3S)-2,2-dimethyl-3-((((1R,3aS,5aR,5b,7aR,9S,11aR,11bR,13aR,13bR)-5a,5b,8,8,11a-pentamethyl-1-(prop-1-en-2-yl)-3a-((S)-2-(5-(trifluoromethyl)-1H-imidazol-2-yl)pyrrolidine-1-carbonyl)icosahydro-1H-cyclopenta[a]chrysen-9-yl)oxy)carbonyl)cyclobutane-1-carboxylic acid], in data set [1], the AUC(0-t) turned out to be 417 µg·h/mL and the Cmax is 18.7 µg/mL. Also, in data set [2], the inhibition at 0.1 µM was 86%, the inhibition at 1 µM is 100% and the IC50 was 6.66 nM.
Consider `C=C(C)[C@@H]1CC[C@]2(C(=O)N3CCC[C@H]3c3nc(C)c(C)[nH]3)CC[C@]3(C)[C@H](CC[C@@H]4[C@@]5(C)CC[C@H](OC(=O)[C@H]6C[C@@H](C(=O)O)C6(C)C)C(C)(C)[C@@H]5CC[C@]43C)[C@@H]12` [Compound 35, (1R,3S)-3-((((1R,3aS,5aR,5bR,7aR,9S,11aR,11bR,13aR,13bR)-3a-((S)-2-(4,5-dimethyl-1H-imidazol-2-yl)pyrrolidine-1-carbonyl)-5a,5b,8,8,11a-pentamethyl-1-(prop-1-en-2-yl)icosahydro-1H-cyclopenta[a]chrysen-9-yl)oxy)carbonyl)-2,2-dimethylcyclobutane-1-carboxylic acid], for which, in data set [1], the AUC(0-t) was 250 µg·h/mL and the Cmax was 14 µg/mL. Further, in data set [2], the inhibition at 0.1 µM is 100%, the inhibition at 1 µM was 100% and the 50% inhibitory concentration (IC50) is 2.81 nM.
On to `C=C(C)[C@@H]1CC[C@]2(C(=O)N3CCC[C@H]3c3ncc[nH]3)CC[C@]3(C)[C@H](CC[C@@H]4[C@@]5(C)CC[C@H](OC(=O)[C@H]6C[C@@H](C(=O)O)C6(C)C)C(C)(C)[C@@H]5CC[C@]43C)[C@@H]12` [Compound 36, (1R,3S)-3-((((1R,3aS,5aR,5bR,7aR,9S,11aR,11bR,13aR,13bR)-3a-((S)-2-(1H-imidazol-2-yl)pyrrolidine-1-carbonyl)-5a,5b,8,8,11a-pentamethyl-1-(prop-1-en-2-yl)icosahydro-1H-cyclopenta[a]chrysen-9-yl)oxy)carbonyl)-2,2-dimethylcyclobutane-1-carboxylic acid], for which, in data set [1], the AUC(0-t) is 158 µg·h/mL and the Cmax came to 10.8 µg/mL. Further, in data set [2], the inhibition at 0.1 µM was 98%, the inhibition at 1 µM was 100% and the concentration for half-maximal inhibition (IC50) is 1.22 nM.
Take `C=C(C)[C@@H]1CC[C@]2(C(=O)N3CCC[C@H]3c3nc4ccccc4[nH]3)CC[C@]3(C)[C@H](CC[C@@H]4[C@@]5(C)CC[C@H](OC(=O)[C@H]6C[C@@H](C(=O)O)C6(C)C)C(C)(C)[C@@H]5CC[C@]43C)[C@@H]12` [Compound 37]: in data set [1], the AUC(0-t) stood at 487 µg·h/mL and the Cmax worked out at 16.8 µg/mL. Moreover, in data set [2], the inhibition at 0.1 µM was 99%, the inhibition at 1 µM is 99% and the IC50 was 3.21 nM.
Turning to `C=C(C)[C@@H]1CC[C@]2(C(=O)N3C[C@H](OCCOC)C[C@H]3c3nc(-c4ccccc4)c[nH]3)CC[C@]3(C)[C@H](CC[C@@H]4[C@@]5(C)CC[C@H](OC(=O)CC(C)(C)C(=O)O)C(C)(C)[C@@H]5CC[C@]43C)[C@@H]12` [Compound 43, 4-(((1R,3aS,5aR,5bR,7aR,9S,11aR,11bR,13aR,13bR)-3a-((2S,4R)-4-(2-methoxyethoxy)-2-(4-phenyl-1H-imidazol-2-yl)pyrrolidine-1-carbonyl)-5a,5b,8,8,11a-pentamethyl-1-(prop-1-en-2-yl)icosahydro-1H-cyclopenta[a]chrysen-9-yl)oxy)-2,2-dimethyl-4-oxobutanoic acid], in data set [1], the AUC(0-t) came to 333 µg·h/mL and the Cmax was found to be 15.4 µg/mL. In data set [2], the half-maximal inhibitory concentration (IC50) was 0.3 nM.
With `C=C(C)[C@@H]1CC[C@]2(C(=O)N3C[C@H](OCCOC)C[C@H]3c3nc(-c4ccc(F)cc4)c[nH]3)CC[C@]3(C)[C@H](CC[C@@H]4[C@@]5(C)CC[C@H](OC(=O)CC(C)(C)C(=O)O)C(C)(C)[C@@H]5CC[C@]43C)[C@@H]12` [Compound 45, 4-(((1R,3aS,5aR,5bR,7aR,9S,11aR,11bR,13aR,13bR)-3a-((2S,4R)-2-(4-(4-fluorophenyl)-1H-imidazol-2-yl)-4-(2-methoxyethoxy)pyrrolidine-1-carbonyl)-5a,5b,8,8,11a-pentamethyl-1-(prop-1-en-2-yl)icosahydro-1H-cyclopenta[a]chrysen-9-yl)oxy)-2,2-dimethyl-4-oxo butanoic acid], in data set [1], the AUC(0-t) was found to be 275 µg·h/mL and the Cmax amounted to 11.5 µg/mL. In data set [2], the IC50 was 0.3 nM.
The corresponding values for `C=C(C)[C@@H]1CC[C@]2(C(=O)N3CCC[C@H]3c3ncc(-c4ccc(OC)cc4)[nH]3)CC[C@]3(C)[C@H](CC[C@@H]4[C@@]5(C)CC[C@H](OC(=O)CC(C)(C)C(=O)O)C(C)(C)[C@@H]5CC[C@]43C)[C@@H]12` [Compound 46, 4-(((1R,3aS,5aR,5bR,7aR,9S,11aR,11bR,13aR,13bR)-3a-((S)-2-(5-(4-methoxyphenyl)-1H-imidazol-2-yl)pyrrolidine-1-carbonyl)-5a,5b,8,8,11a-pentamethyl-1-(prop-1-en-2-yl)icosahydro-1H-cyclopenta[a]chrysen-9-yl)oxy)-2,2-dimethyl-4-oxobutanoic acid] are 153 µg·h/mL, 8.71 µg/mL and 11 nM.
For `C=C(C)[C@@H]1CC[C@]2(C(=O)N3CCC[C@H]3c3nnc(-c4ccccc4)[nH]3)CC[C@]3(C)[C@H](CC[C@@H]4[C@@]5(C)CC[C@H](OC(=O)CC(C)(C)C(=O)O)C(C)(C)[C@@H]5CC[C@]43C)[C@@H]12` [Compound 48, 2,2-dimethyl-4-oxo-4-(((1R,3aS,5aR,5bR,7aR,9S,11aR,11bR,13aR,13bR)-5a,5b,8,8,11a-pentamethyl-3a-((S)-2-(5-phenyl-4H-1,2,4-triazol-3-yl)pyrrolidine-1-carbonyl)-1-(prop-1-en-2-yl)icosahydro-1H-cyclopenta[a]chrysen-9-yl)oxy)butanoic acid], in that order: 299 µg·h/mL, 20.8 µg/mL and 5.8 nM.
Consider `CC1([C@@H]2CC[C@]3(C(=O)N4CCC[C@H]4c4ncc(-c5cccc(F)c5)[nH]4)CC[C@]4(C)[C@H](CC[C@@H]5[C@@]6(C)CC[C@H](OC(=O)[C@H]7C[C@@H](C(=O)O)C7(C)C)C(C)(C)[C@@H]6CC[C@]54C)[C@@H]23)CC1` [Compound 50, (1R,3S)-3-((((1R,3aS,5aR,5bR,7aR,9S,11aR,11bR,13aR,13bR)-3a-((S)-2-(5-(3-fluorophenyl)-1H-imidazol-2-yl)pyrrolidine-1-carbonyl)-5a,5b,8,8,11a-pentamethyl-1-(1-methylcyclopropyl)icosahydro-1H-cyclopenta[a]chrysen-9-yl)oxy)carbonyl)-2,2-dimethylcyclobutane-1-carboxylic acid], for which, in data set [1], the AUC(0-t) amounted to 358 µg·h/mL and the Cmax amounted to 13.9 µg/mL. For the same compound, in data set [2], the half-inhibitory concentration (IC50) was 0.35 nM.
